{"source": "patent US20080280860A1", "about": "“Use of Vitamin D Compounds to Treat Endometriosis” (BioXell S.p.A., priority 2005, published 2008)", "key": {"[1]": {"test_system": "Eutopic endometrium stromal cells", "assay": "Proliferation of endometrial stromal cells in vitro (CyQuant), eutopic", "format": "cell-based", "details": "1 uM-0.1 nM, 48-96 hours; FIG. 2A", "protocol": "(§1) Tissue was gently minced into small pieces (1 to 2 mm^3) and incubated at 37° C. for 1 h with 0.1% type A collagenase. At the end of the incubation, single stromal cells were separated from large clumps of epithelium by a 10 min. period of differential sedimentation at unity gravity. The top 8 ml of medium, containing predominantly stromal cells, were then slowly removed and the cells were collected by centrifugation. The stromal-enriched fraction was washed twice in culture medium and allowed to adhere selectively to tissue culture dishes for 15 min.\n(§2) Thereafter, nonattached epithelial cells still present were removed and a purified stromal preparation was obtained on the surface of the culture dishes.\n(§3) The cells were maintained in DMEM supplemented with 10% Fetal Bovine Serum (SIGMA) and 100 U/ml penicillin, 100 ug/ml streptomycin (GIBCO cat. no. 15140-122).\n(§4) When the stromal cells were grown to confluence, were washed in PBS and then trypsinized using 1× trypsin/EDTA solution (PromoCell cat. no. C-41002). […] The proliferation was determined with CyQuant Cell Proliferation Assay (Molecular Probe cat. no. C7026). […]\n(§5) The fluorescence was determined using a fluorescence microplate reader with filters appropriate for ˜480 nm excitation and ˜520 nm emission."}, "[2]": {"test_system": "Ectopic endometrium stromal cells", "assay": "Proliferation of endometrial stromal cells in vitro (CyQuant), ectopic", "format": "cell-based", "details": "1 uM-0.1 nM, 48-96 hours; FIG. 2B; may be dose dependent", "protocol": "as §1, §2, §3, §4, §5"}, "stromal cells": {"test_system": "stromal cells", "assay": "Real Time PCR for gene expression quantification in cultured cells", "format": "cell-based", "details": "1 uM and 0.1 uM versus untreated", "protocol": "as §1, §2\nCells were incubated at 37° C. in 3% FBS DMEM (without Compound A, with Compound A at 1 uM concentration or with Compound A at 0.1 uM concentration) or 10% FBS DMEM (without Compound A, with Compound A at 1 uM concentration or with Compound A at 0.1 uM concentration). After 4 or 8 hours of incubation cells were trypsinized and collected as a cell pellet.\nFor total RNA extraction it was used the RNeasy Mini Kit QIAGEN (cat. no. 74106) briefly described below.\nCells were distrupted by addition of Buffer RLT and the lysate was loaded onto a QlAshredder spin column (QIAGEN cat. no. 79656) placed in a 2 ml collection tube and centrifuged for 2 min at maximum speed. A volume of 70% ethanol was added to the homogenized lysate. The sample was loaded on an RNeasy mini column placed in a 2 ml collection tube and centrifuged for 15 sec at >10000 rpm. The RNA bound to the column was digested with a DNase treatment. The column was washed with Buffer RW1 and centrifuged for 15 sec at >10000 rpm. The sample was incubated with DNase I mix (RNase-Free Dnase Set QIAGEN cat. no. 79254) at room temperature for 15 min. […] RNA concentration was evaluated by NanoDrop Spectrophotometer […]\nReal Time PCR was performed by using ABI PRISM 7000 Sequence Detection System (Applied Biosystems). […] The genes analysed included Vitamin D Receptor (VDR), Cytochrome P450 (CYP24), Vascular Endothelial Growth Factor (VEGF), Estrogen Receptor alpha (ERα), Estrogen Receptor beta (ERβ), Progesterone Receptor (PR), Aromatase (CYP19), Cyclooxygenase type 2 (COX-2), Interleukin-8 (IL-8), Tumor Necrosis Factor alpha (TNF α), Caspase-3 (CASP3), Caspase-6 (CASP6), Ki-67 Nuclear Antigen (Ki-67).\nSamples were incubated 2 min at 50° C., 10 min at 95° C. and amplified for 40 cycles at 95° C. for 15 sec (denaturation) and at 60° C. for 1 min (annealing/extension). The amount of gene expression was normalized to rRNA 18S gene expression and the comparative CT methods (User Bulletin #2 ABI PRISM 7000 Sequence Detection System) was used for relative quantitation."}, "peritoneal macrophages": {"test_system": "peritoneal macrophages", "assay": "ELISA quantification of cytokine produced by peritoneal macrophages", "format": "in vivo, mice", "protocol": "Peritoneal cells were recovered two weeks after unterus transfer in cold PBS, 2 mM EDTA, by peritoneal lavage of treated (Compound A at 100 ug/kg) and untreated (vehicle only) animals prepared according to the procedure described previously in Examples 1 to 3 (pool of 5 mice per group). Peritoneal macrophages were counted directly after collection using Turk reagent, washed, and placed into culture with RPMI/glutamax 5% FC I, pen/strep, Na pyruvate. After 2 hr at 37° C. the non adherent cells were removed and the macrophages were cultured for a further 48 hr. The supernatant was harvested and cytokines (TNF-alpha, IL1-alpha, IL1-beta, IL6, MIP-2 and VEGF) were quantified using a specific ELISA (R&D System DuoSet). All ELISA determinations were performed in duplicate on the undiluted sample. The total cells number plated was assessed by CyQuant test and values of protein production were normalized to cell number."}}}
{"compound": "C=C1/C(=C\\C=C2/CCC[C@]3(C)C([C@@H](C)C/C=C/C(O)(CC)CC)=CC[C@@H]23)C[C@@H](O)C[C@@H]1F", "note": "[Compound A, 1-alpha-fluoro-25-hydroxy-16,23E-diene-26,27-bishomo-20-epi-cholecalciferol]", "values": [{"measurement": "cell proliferation, Eutopic endometrium", "setting": "[1]", "value": "reduction in cell proliferation"}, {"measurement": "cell proliferation, Ectopic endometrium", "setting": "[2]", "value": "reduction in cell proliferation"}, {"measurement": "VDR expression", "setting": "stromal cells; FIG. 3A", "value": "Little or no change"}, {"measurement": "VEGF expression", "setting": "stromal cells; FIG. 3B", "value": "Little or no change"}, {"measurement": "Cyp24 expression", "setting": "stromal cells; FIG. 3C", "value": "marked upregulation"}, {"measurement": "Cyp19 expression", "setting": "stromal cells; FIG. 3D", "value": "Little or no change"}, {"measurement": "inflammatory cytokine and VEGF production (TNF-alpha, IL1-alpha, IL1-beta, IL6, MIP-2, VEGF)", "setting": "peritoneal macrophages; 100 ug/kg versus vehicle, macrophages recovered two weeks after uterus transfer, cultured 48 hr, FIG. 11", "value": "dramatically reduced"}, {"measurement": "cytokine production after re-activation in vitro with LPS", "setting": "peritoneal macrophages; macrophages of treated animals, data not shown", "value": "still capable of producing the same cytokines"}]}
